Assay results published in patent US20250281464A1, “TREATMENT OF PATHOGENIC NEISSERIA SP. INFECTION WITH TRIAZOLE ANTIFUNGAL AGENTS” (Virginia Tech Intellectual Properties, Inc., priority 2022, published 2025).
Values after ≈ are worked out from the molar mass of the structure shown.

Tests used:
[1] = test system: L. jensenii; assay: MIC against commensal vaginal Lactobacillus strains; type: cell-based, Lactobacillus jensenii; details: for MIC: Lactobacillus jensenii
Description: (§1) N. gonorrhoeae pathogenesis greatly depends on colonization of the reproductive tract. One of the natural barriers of such colonization is an intact healthy microbiome. Species of lactobacilli present in the genitourinary tract play a significant role in hindering colonization by Neisseria(1).
(§2) A healthy vaginal microbiome that is dominated by Lactobacillus spp. is less susceptible to N. gonorrhoeae infection and other sexually transmitted diseases (STDs). […] We tested the activity of azoles against important members of healthy vaginal microbiota that inhibit N. gonorrhoeae colonization.

[2] = test system: L. johnsonii; assay: as above; type: cell-based, Lactobacillus johnsonii
Description: as §1, §2

[3] = test system: N. gonorrhoeae; assay: Post-antibiotic effect (PAE) against N. gonorrhoeae; type: cell-based, Neisseria gonorrhoeae; details: 1 h exposure at 10×MIC
Description: Determining the PAE of a new antimicrobial is an important step for dosing and has clinical importance.

[4] = test system: N. flavescens; assay: MIC against Neisseria spp.; type: cell-based; details: N. flavescens (1 strain)
Description: (§3) Intrigued by the specificity and potent activity of azoles against N. gonorrhoeae, we evaluated the extent of the azoles' antibacterial activity against other Neisseria species (Table 8).

[5] = test system: N. lactamica; assay: MIC against Neisseria spp.; type: cell-based; details: N. lactamica (1 strain)
Description: as §3

[6] = test system: N. mucosa; assay: MIC against Neisseria spp.; type: cell-based; details: N. mucosa (1 strain)
Description: as §3

`C[C@@H](c1nc(-c2ccc(C#N)cc2)cs1)[C@](O)(Cn1cncn1)c1cc(F)ccc1F` [Isavuconazole] was tested, and the MIC ([1]; L. jensenii HM-105) was > 256 µg/mL, the MIC ([1]; L. jensenii HM-372) was > 256 µg/mL and the MIC ([1]; L. jensenii HM-374) was > 256 µg/mL. The MIC ([1]; L. jensenii HM-639) was > 256 µg/mL, the MIC ([1]; L. jensenii HM-640) was > 256 µg/mL and the MIC ([1]; L. jensenii HM-645) was > 256 µg/mL. The MIC ([1]; L. jensenii HM-646) was > 256 µg/mL, the “MIC Range” value ([1]; Table 6, L. jensenii (7 strains)) was ≥256 µg/mL and the MIC ([2]; Lactobacillus johnsonii, L. johnsonii HM-643) was > 256 µg/mL. The “MIC Range” value ([2]; Table 6, L. johsonii (2 strains)) was ≥256 µg/mL, the PAE ([3]; strain FA 1090) was 10 h and the PAE ([3]; strain WHO P) was 10 h. The PAE ([3]; strain WHO Y) was 10 h, the “MIC Range” value [4] was 16 µg/mL (≈ 36.6 µM) and the “MIC Range” value [5] was 1 µg/mL (≈ 2.29 µM). For the same compound, the “MIC Range” value [6] was 8 µg/mL (≈ 18.3 µM).
